Read-outs that look alike come from different tables or passages of the source. Numbered stars: 1 amine (or outer) side, 2 acyl side, 3 side chain; on linkers, the order of the positions; unused ones are H or OH. Square brackets hold non-standard residues; d marks the D form. Peptide text beside a SMILES is read from it. * marks the point of attachment. 5FAM = O=C1OC2(c3ccc(O)cc3Oc3cc(O)ccc32)c2ccc(C(=O)*)cc21; NHCH2C6H4(4-CH2CONH2) = NC(=O)Cc1ccc(CN*)cc1; X1 = O=C(Cc1ccc(CN[*:1])cc1)[*:2]

One assay has as its target T1, cRaf/K-Ras (G12V) PPI (Homo sapiens, UniProt P01116, G12V).
T1 construct: b-Kras G12V (GppNHp) (aa 2-169); biotin (b-
The experiment in a line: K-Ras-cRaf HTRF-based PPI profiling.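 On blank corrected HTRF: background is the signal of wells with all components except cRaf.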 In kind it is biochemical. The settings on record: for blank corrected HTRF: raw data, compounds without fluorescein. Here is the method:
In some experimental embodiments, a buffer was added to the assay wells which included […] HEPES pH 7.4, 150 mM NaCl, 5 mM MgCl2, 1 mM DTT, 0.005% NP40, and 1% DMSO. 5 uL of 3×K-Ras protein was then added to the assay wells, followed by the synthetic compounds which were added using acoustic technology (ECHO, Labcyte) followed by thirty minutes incubation at room temperature. Afterwards, 5 uL of 3×cRaf protein was added to the assay wells and 5 uL of detection mix was then added to the assay wells after 30 minutes. The detection mix included Mab anti-GST-Tb cryptate (Cisbio 61GSTTLB) and streptavidin-XL665 (Ex/Em=(337/665; 620) in PHERAstar (BMG Labtech)). HTRF signal was measured […] later.
The data includes raw data (signal-background without cRaf protein but with all other component), % binding (relative to DMSO controls), and curve fits. Curve fits were performed when the activities at the highest concentration of the synthetic compounds were less than 65%. Tables 18A-18B below includes the raw data (e.g., blank corrected HTRF) and Tables 19A-19B includes the % binding.
A general note: TR-FRET usually uses a lanthanide donor and a delayed reading to cut background.

The target in the next assay is T2, K-Ras (Homo sapiens, UniProt P01116, G12V).
T2 construct: purchased Cytoskeleton Inc. CS-RS04
The experiment in a line: MST binding affinity of resynthesized NNP hits to K-Ras. The procedure: Loading was performed according to the following protocol: The 200 μM stock solution of the target protein was diluted to 10 μM in 20 mM HEPES pH 8.0, 150 mM NaCl, 10 mM MgCl2, 1 mM TCEP, 0.05% Tween-20 (total volume 110 μL). 10 μL were set aside for later labeling quality control. EDTA pH 8.0 (stock concentration 10 mM) was added to the protein solution to a final concentration of 80 μM. GTP (stock concentration 50 mM) was added to the protein solution to a final concentration of 750 μM. The solution was incubated at 30° C. for 2 hours (PCR tube) and then placed on ice for 2 minutes. MgCl2 was added to the protein solution to a final concentration of 100 mM. The resulting protein solution was buffer exchanged into the buffer required in the labeling kit for labeling. […] All the other target molecules (TNFα, IL-6, IL-6R and ASGPR) were used as received without any additional treatment.
Hit binding affinity to various targets were determined using Microscale Thermophoresis (MST). MST experiments were performed on a Monolith NT.115pico (NanoTemper Technologies GmbH, Munich, Germany). Measurements were performed at room temperature, in triplicate with incubation periods of 15, 30 and 45 minutes. […] Targets were labeled using Nanotemper Monolith 2nd Generation Protein Labeling Kits. RED-MALEIMIDE (Maleimide-647-dye) labeling kit was used for K-Ras and RED-NHS (NHS-647-dye) labeling kit was used for IL-6, IL-6R, TNFα and ASGPR. The buffer for the ASGPR contained 20 mM HEPES pH 7.4, 150 mM NaCl, 10 mM MgCl2, 2 mM CaCl2, 0.05% Pluronic F-127, and 1 mM DTT; for IL-6 contained 20 mM HEPES pH 7.4, 150 mM KCl, 10 mM MgCl2, and 0.1% Pluronic F-127; for the soluble IL-6 receptor 20 mM HEPES pH 7.4, 150 mM NaCl, 10 mM MgCl2, and 0.05% Tween-20; for K-Ras 20 mM HEPES pH 7.4, 150 mM NaCl, 10 mM MgCl2, 0.05% Tween-20 and 1 mM DTT; for TNFα 10 mM HEPES pH 7.4, 150 mM NaCl, 10 mM MgCl2, 0.05% Polysorbate-20. Triplicate data was analyzed using MO.AffinityAnalysis software (NanoTemper Technologies GmbH).

[1] abbreviates: read-out: KD (nM) [95% conf. int], MST, NNP1 library hit, target K-Ras, one-site binding model.

At cRaf/K-Ras (G12V) PPI (curve fit of % binding, K-Ras G12V 30 nM, GST-cRaf 10 nM), `CC(C)[C@H](NC(=O)[C@@H](Cc1ccc(O)cc1)NC(=O)[C@@H](Cc1c[nH]cn1)NC(=O)[C@H]1CCCN1C(=O)[C@@H](Cc1c[nH]c2ccccc12)NC(=O)c1ccc2c(c1)C(=O)OC21c2ccc(O)cc2Oc2cc(O)ccc21)C(=O)NCc1ccc(CC(=O)NCC(=O)N[C@@H](C(=O)N2CCC[C@@H]2C(=O)N[C@H](CCCNC(=N)N)C(=O)N[C@@H](C)C(=O)NCc2ccc(CC(=O)N3CCC[C@@H]3C(=O)N[C@H](CO)C(=O)N[C@H](CCC(=O)O)C(=O)N[C@H](CCCNC(=N)N)C(=O)NCC(=O)NCc3ccc(CC(=O)N4CCC[C@@H]4C(=O)N[C@H](CCCCN)C(=O)N[C@H](Cc4ccc(O)cc4)C(=O)N[C@H](CCCNC(=N)N)C(=O)N[C@@H](Cc4ccccc4)C(=O)NCc4ccc(CC(=O)N[C@H](CO)C(=O)N[C@H](CO)C(=O)NCC(=O)N[C@H](CC(N)=O)C(=O)N[C@@H](Cc5ccccc5)C(=O)NCc5ccc(CC(=O)NCC(=O)N[C@H](Cc6c[nH]c7ccccc67)C(=O)N[C@H](Cc6c[nH]cn6)C(=O)N[C@H](CCCNC(=N)N)C(=O)N[C@@H](C)C(=O)NCc6ccc(CC(N)=O)cc6)cc5)cc4)cc3)cc2)C(C)C)cc1` [KRAS-1-1] (5FAM-[dW][dP][dH][dY]V[X1]G[dV][dP][dR]A[X1][dP][dS][dE][dR]G[X1][dP][dK][dY][dR]F[X1][dS][dS]G[dN]F[X1]G[dW][dH][dR]A-{NHCH2C6H4(4-CH2CONH2)}) had a HillSlope of −0.7155. Besides, the “blank corrected HTRF” value at cRaf/K-Ras (G12V) PPI (conc. 1.00E−05) came to 4849; at cRaf/K-Ras (G12V) PPI (conc. 1.11E−06), 6589; on cRaf/K-Ras (G12V) PPI (conc. 1.23E−07), 12756; on cRaf/K-Ras (G12V) PPI (conc. 1.37E−08) it was 14500; on cRaf/K-Ras (G12V) PPI (conc. 3.33E−06) it was 5282; on cRaf/K-Ras (G12V) PPI (conc. 3.70E−07) it was 11981. The “blank corrected HTRF” value on cRaf/K-Ras (G12V) PPI (conc. 4.12E−08) was 14675; on cRaf/K-Ras (G12V) PPI (conc. 5.08E−10), 13672. The dissociation constant (Kd) on K-Ras (K-Ras, compound with fluorescein on N-term, read-out: KD[nM] in MST (with fluorescein on N-term)) was 24 nM; at K-Ras (setting [1]), 24 nM.

As to `CC(C)[C@H](NC(=O)[C@@H](Cc1c[nH]c2ccccc12)NC(=O)[C@H]1CCCN1C(=O)[C@@H](Cc1c[nH]cn1)NC(=O)[C@@H](Cc1ccc(O)cc1)NC(=O)c1ccc2c(c1)C(=O)OC21c2ccc(O)cc2Oc2cc(O)ccc21)C(=O)NCc1ccc(CC(=O)NCC(=O)N[C@H](CCCCN)C(=O)N[C@H](Cc2c[nH]cn2)C(=O)N[C@H](CC(N)=O)C(=O)N[C@@H](Cc2ccccc2)C(=O)NCc2ccc(CC(=O)N3CCC[C@@H]3C(=O)N[C@H](CO)C(=O)N[C@H](CCC(=O)O)C(=O)N[C@H](CCCNC(=N)N)C(=O)NCC(=O)NCc3ccc(CC(=O)N4CCC[C@@H]4C(=O)N[C@H](CCCCN)C(=O)N[C@H](Cc4ccc(O)cc4)C(=O)N[C@H](CCCNC(=N)N)C(=O)N[C@@H](Cc4ccccc4)C(=O)NCc4ccc(CC(=O)N5CCC[C@@H]5C(=O)NCC(=O)N[C@H](CCCNC(=N)N)C(=O)N[C@H](Cc5c[nH]c6ccccc56)C(=O)NCC(=O)NCc5ccc(CC(=O)N[C@H](Cc6ccc(O)cc6)C(=O)N6CCC[C@@H]6C(=O)N[C@H](CCCNC(=N)N)C(=O)N[C@H](CCC(=O)O)C(=O)NCC(=O)NCc6ccc(CC(N)=O)cc6)cc5)cc4)cc3)cc2)cc1` [KRAS-1-11] (5FAM-[dY][dH][dP][dW]V[X1]G[dK][dH][dN]F[X1][dP][dS][dE][dR]G[X1][dP][dK][dY][dR]F[X1][dP]G[dR][dW]G[X1][dY][dP][dR][dE]G-{NHCH2C6H4(4-CH2CONH2)}), the Kd on K-Ras (setting [1]) is 60 nM.

With `CC(C)C[C@H](NC(=O)[C@@H](CCCNC(=N)N)NC(=O)[C@@H](CCCCN)NC(=O)[C@@H](CCC(=O)O)NC(=O)[C@@H](Cc1ccccc1)NC(=O)Cc1ccc(CNC(=O)[C@H](Cc2ccccc2)NC(=O)[C@@H](CO)NC(=O)[C@@H](CCC(=O)O)NC(=O)[C@H]2CCCN2C(=O)[C@@H](CC(C)C)NC(=O)c2ccc3c(c2)C(=O)OC32c3ccc(O)cc3Oc3cc(O)ccc32)cc1)C(=O)NCc1ccc(CC(=O)N2CCC[C@@H]2C(=O)N[C@H](CO)C(=O)N[C@H](CCC(=O)O)C(=O)N[C@H](CCCNC(=N)N)C(=O)NCC(=O)NCc2ccc(CC(=O)N3CCC[C@@H]3C(=O)N[C@H](CCCCN)C(=O)N[C@H](Cc3ccc(O)cc3)C(=O)N[C@H](CCCNC(=N)N)C(=O)N[C@@H](Cc3ccccc3)C(=O)NCc3ccc(CC(=O)N4CCC[C@@H]4C(=O)NCC(=O)N[C@H](CCCNC(=N)N)C(=O)N[C@H](Cc4c[nH]c5ccccc45)C(=O)NCC(=O)NCc4ccc(CC(=O)NCC(=O)N[C@H](Cc5c[nH]c6ccccc56)C(=O)N[C@H](Cc5c[nH]cn5)C(=O)N[C@H](CCCNC(=N)N)C(=O)N[C@@H](C)C(=O)NCc5ccc(CC(N)=O)cc5)cc4)cc3)cc2)cc1` [KRAS-1-12] (5FAM-[dL][dP][dE][dS]F[X1][dF][dE][dK][dR]L[X1][dP][dS][dE][dR]G[X1][dP][dK][dY][dR]F[X1][dP]G[dR][dW]G[X1]G[dW][dH][dR]A-{NHCH2C6H4(4-CH2CONH2)}), the equilibrium dissociation constant (Kd) on K-Ras (setting [1]) amounted to 24 nM.

With `CC(C)C[C@H](NC(=O)[C@@H](CCCNC(=N)N)NC(=O)[C@@H](CCCCN)NC(=O)[C@@H](CCC(=O)O)NC(=O)[C@@H](Cc1ccccc1)NC(=O)Cc1ccc(CNC(=O)[C@@H](NC(=O)[C@@H](Cc2ccc(O)cc2)NC(=O)[C@@H](Cc2c[nH]cn2)NC(=O)[C@H]2CCCN2C(=O)[C@@H](Cc2c[nH]c3ccccc23)NC(=O)c2ccc3c(c2)C(=O)OC32c3ccc(O)cc3Oc3cc(O)ccc32)C(C)C)cc1)C(=O)NCc1ccc(CC(=O)N2CCC[C@@H]2C(=O)N[C@H](CO)C(=O)N[C@H](CCC(=O)O)C(=O)N[C@H](CCCNC(=N)N)C(=O)NCC(=O)NCc2ccc(CC(=O)N3CCC[C@@H]3C(=O)N[C@H](CCCCN)C(=O)N[C@H](Cc3ccc(O)cc3)C(=O)N[C@H](CCCNC(=N)N)C(=O)N[C@@H](Cc3ccccc3)C(=O)NCc3ccc(CC(=O)N4CCC[C@@H]4C(=O)NCC(=O)N[C@H](CCCNC(=N)N)C(=O)N[C@H](Cc4c[nH]c5ccccc45)C(=O)NCC(=O)NCc4ccc(CC(=O)N[C@H](Cc5c[nH]cn5)C(=O)N[C@H](Cc5ccc(O)cc5)C(=O)N[C@H](CO)C(=O)N[C@H](CCC(=O)O)C(=O)N[C@@H](Cc5ccccc5)C(=O)NCc5ccc(CC(N)=O)cc5)cc4)cc3)cc2)cc1` [KRAS-1-15] (5FAM-[dW][dP][dH][dY]V[X1][dF][dE][dK][dR]L[X1][dP][dS][dE][dR]G[X1][dP][dK][dY][dR]F[X1][dP]G[dR][dW]G[X1][dH][dY][dS][dE]F-{NHCH2C6H4(4-CH2CONH2)}), the Kd on K-Ras (setting [1]) was found to be 180 nM.

As a reminder, the Kd is the free concentration of one partner at which half of the binding sites on the other are occupied at equilibrium, for simple one-to-one binding.
